We go through 15 compounds from patent publication US20230250436A1, “NUCLEIC ACID THAT INTERACTS WITH A RECEPTOR FOR ENDOCRINE DISRUPTING CHEMICALS AND USE THEREOF” (KUMIAI CHEMICAL INDUSTRY CO., LTD., priority 2020, published 2023).

Common to all, as to format: cell-based
In experiment [1] the test system is juvenile hormone receptor of Daphnia magna (DampaMET). The experiment in a line: Yeast reporter (β-galactosidase) assay, transformants with DampaMET and DampaSRC. Also noted: key to Increase in induction: increase of induction; positive value = reporter activity to substance. How it is done:
(§1) Subsequently, a reporter plasmid prepared by inserting the nucleotide sequence shown in SEQ ID NO: 2 into a yeast comprising the DampaMET plasmid and the DampaSRC plasmid introduced thereinto by the lithium acetate method. Thus, Yeast 1 of Invention was obtained. In the same manner, Yeasts 2 to 38 of Invention each comprising the response element according to the present invention and Control yeasts 1 to 9 shown in Table 3 were prepared.
(§2) With the use of the Yeast 1 of Invention, reporter activity to methyl farnesoate as a juvenile hormone substance was measured. At the outset, the Yeast 1 of Invention was subjected to pre-culture at 30° C. for 18 hours using the pre-culture medium shown in Table 1 until the turbidity (O.D. 595) of the pre-culture medium reached approximately 0.1. The solution of the pre-cultured cells (10 μl) and 1 μl of the solution of methyl farnesoate diluted to various concentrations with dimethyl sulfoxide (DMSO) were mixed with 90 μl of the main culture solution shown in Table 4 in a 96-well plate, and the mixture was subjected to static culture at 30° C. for 18 hours to prepare a reaction solution. The resultant was designated as a test group.
(§3) A reaction solution prepared with the addition of 1 μl of DMSO instead of a diluted methyl farnesoate solution was designated as a control group. Fractions of 10 μl each were collected from the reaction solutions and dispensed into each well of another 96-well plate. Thereafter, 100 μl of an assay reagent comprising a lytic solution (Z buffer: 60 mM Na2HPO4, 40 mM NaH2PO4, 1 mM MgCl2, 10 mM KCl, 2 mM dithiothreitol, 0.20% N-lauroylsarcosine sodium salt) mixed with 1 mg/ml ONPG (orthonitrophenylgalactopyranoside) was dispensed into each well, and the reaction was allowed to proceed at 37° C. for 30 minutes. Thereafter, the absorbance (O.D. 405) and the turbidity (O.D. 595) of the reaction solutions were assayed at the wavelength of 405 nm using a microplate reader (tradename: iMark microplate reader, Bio-Rad Laboratories). The increase of induction was calculated in accordance with the following formula.
(§4) The increase of induction is described in Ito-Harashima S et al., FEBS Open Bio., 7 (7): pp. 995-1008, 2017. When the increase of induction is positive, the transformant is determined to have reporter activity to the substance tested. The test was performed once or repeated 3 times, 5 times, or 15 times, and the average increase of induction was calculated. The control yeast 1 was treated in the same manner and reporter activity was compared.
In the same manner as in Test Example 1, the Yeasts 2, 3, 4, 5, 6, 7, 9, 10, 11, 12, 13, 14, 15, 16, 17, 18, 19, and 20 of Invention were subjected to assays of reporter activity to methyl farnesoate. The test was performed in accordance with Test Example 1, and reporter activity of the yeasts indicated above was compared with that of the control yeasts 2, 3, and 4.
With the use of the control yeast 7 comprising a different nucleotide sequence of the C-box (CACGCG) in the response element, the control yeast 8 comprising a different nucleotide sequence of the E-box (CACGTG), and the control yeast 9 comprising different nucleotide sequences of the C-box and the E-box from the relevant nucleotide sequences of the Yeast 4 of Invention, the influence of a core sequence on reporter activity to methyl farnesoate was evaluated. The test was performed in accordance with Test Example 1.
(§5) With the use of the Yeast 4 and the Yeast 8 of the present Invention, reporter activity to sex hormones; i.e., 17β-estradiol and testosterone, insect juvenile hormones; i.e., juvenile hormone III, and chemical substances suspected of having endocrine disrupting actions, such as 4-nonyl phenol, bisphenol A, 1,1,1-trichloro-2,2-bis(4-chlorophenyl)ethane (DDT), 2,2-bis(4-chlorophenyl)-1,1-dichloroethylene (DDE), and dieldrin, was assayed. The test was performed in accordance with Test Example 1. All the test substances were treated at 10 μM. […]

In experiment [2] the test system is juvenile hormone receptor of Drosophila melanogaster (DmMET). The experiment in a line: Yeast reporter (β-galactosidase) assay, transformants with DmMET and DmTai. The settings on record: test substance 10 μM. How it is done: A plasmid expressing a juvenile hormone receptor of Drosophila melanogaster (hereafter, referred to as a “DmMET plasmid”) was prepared in the same manner. At the outset, ORF of cDNA of the DmMET gene was amplified by PCR using, as a template, cDNA of Drosophila melanogaster larvae (Clontech) and the primers for DmMET: DmMET Fwd (SEQ ID NO: 21) and DmMET Rev (SEQ ID NO: 22). PCR was carried out by repeating a cycle of 98° C. for 10 seconds, 55° C. for 30 seconds, and 68° C. for 1.5 minutes 25 times.
as §1, §2, §3, §4
With the use of the Yeast 4 and the Yeast 8 of the present Invention, reporter activity to sex hormones; i.e., 17β-estradiol and testosterone, insect juvenile hormones; i.e., juvenile hormone III, and chemical substances suspected of having endocrine disrupting actions, such as 4-nonyl phenol, bisphenol A, 1,1,1-trichloro-2,2-bis(4-chlorophenyl)ethane (DDT), 2,2-bis(4-chlorophenyl)-1,1-dichloroethylene (DDE), and dieldrin, was assayed. The test was performed in accordance with Test Example 1. All the test substances were treated at 10 μM. For comparison, reporter activity to compounds was assayed using the control yeast 5 and the control yeast 6 comprising a known juvenile hormone receptor response element (i.e., the JH response element of Drosophila melanogaster) integrated therein.

The test system of experiment [3] is juvenile hormone receptor of Daphnia magna (DampaMET). The experiment in a line: Yeast reporter (β-galactosidase) assay, Control yeast 5 with DampaMET, DmTai and DmJHRR. The settings on record: Control yeast 5 (DmJHRR x3, DampaMET, DmTai), test substance 10 μM. How it is done: For further comparison, a plasmid comprising a region including the juvenile hormone response element of the Kr-hi gene of Drosophila melanogaster (DmJHRR) inserted thereinto was prepared. DmJHRR is described in He Q et al., J. Biol. Chem., 289 (40), pp. 27874-27885, 2014. A plasmid comprising 3 consecutive repeats of the DmJHRR sequence inserted thereinto was prepared in accordance with the method described above, except that oligo DNA comprising the DmJHRR sequence (SEQ ID NO: 15) was used instead of the oligo DNA shown in SEQ ID NO: 3 and oligo DNA partially complementary to SEQ ID NO: 15 (SEQ ID NO: 16) was used instead of the oligo DNA shown in SEQ ID NO: 4.
as §1, §2, §3, §4, §5

The test system is the same in experiment [4]. The experiment in a line: Yeast reporter assay for antagonist activity in the presence of 10 nM methyl farnesoate. The settings on record: Yeast 4 of Invention; test substance 10 μM in the presence of 10 nM methyl farnesoate; 0 = group treated with 10 nM methyl farnesoate. How it is done: as §2
A reaction solution prepared with the addition of 1 μl of DMSO instead of a diluted methyl farnesoate solution was designated as a control group. Fractions of 10 μl each were collected from the reaction solutions and dispensed into each well of another 96-well plate. […] Thereafter, the absorbance (O.D. 405) and the turbidity (O.D. 595) of the reaction solutions were assayed at the wavelength of 405 nm using a microplate reader (tradename: iMark microplate reader, Bio-Rad Laboratories). The increase of induction was calculated in accordance with the following formula.
The increase of induction is described in Ito-Harashima S et al., FEBS Open Bio., 7 (7): pp. 995-1008, 2017. When the increase of induction is positive, the transformant is determined to have reporter activity to the substance tested. The test was performed once or repeated 3 times, 5 times, or 15 times, and the average increase of induction was calculated. […]
With the use of the yeast 4 of the present invention, antagonist activity of juvenile hormone receptors to endrin, aldrin, and dieldrin was evaluated at 10 μM. […]

Where [5] appears, read: Yeast 4 of Invention (SEQ ID NO: 2 x4, DampaMET, DampaSRC), test substance 10 μM.
Where [6] appears, read: Yeast 8 of Invention (SEQ ID NO: 2 x4, DmMET, DmTai).
Setting [7] is: Control yeast 6 (DmJHRR x3, DmMET, DmTai).
The mark [8] stands for this setting: Yeast 4 of Invention (SEQ ID NO: 2 x4), test substance 100 μM.

Each structure is given as a SMILES string.

Consider `CCCCCCCCCc1ccc(O)cc1` [4-nonyl phenol], for which the Increase in induction in experiment [1] (setting [5]) was 2.16; in experiment [2] (setting [6]) it was 1.81.

Take `C[C@]12CC[C@@H]3c4ccc(O)cc4CC[C@H]3[C@@H]1CC[C@@H]2O` [17β-estradiol]: the Increase in induction in experiment [1] (setting [5]) is reported as 1.97; in experiment [3], −0.14; in experiment [2] (setting [7]), −0.29; in experiment [2] (setting [6]), 1.01.

`ClC1=C(Cl)C2(Cl)C3C4C=CC(C4)C3C1(Cl)C2(Cl)Cl` (stereo not shown) [Aldrin, aldrin]: in experiment [4], the “Increase in induction (antagonist activity)” value is −9.02.

Turning to `CC(C)OC(=O)N[C@H](C(=O)N[C@H](C)c1nc2ccc(F)cc2s1)C(C)C` [Benthiavalicarb isopropyl, benthiavalicarb isopropyl], in experiment [1] (setting [8]), the Increase in induction is −0.37.

As for `CC(C)(c1ccc(O)cc1)c1ccc(O)cc1` [Bisphenol A, bisphenol A], the Increase in induction in experiment [1] (setting [5]) was 1.14; in experiment [3] it was −0.38; in experiment [2] (setting [7]), −0.23; in experiment [2] (setting [6]) it was 0.52.

Take `ClC(Cl)=C(c1ccc(Cl)cc1)c1ccc(Cl)cc1` [DDE, 2,2-bis(4-chlorophenyl)-1,1-dichloroethylene]: the Increase in induction is on record as 2.15 in experiment [1] (setting [5]), −0.08 in experiment [3], −0.19 in experiment [2] (setting [7]) and 1.23 in experiment [2] (setting [6]).

Consider `Clc1ccc(C(c2ccc(Cl)cc2)C(Cl)(Cl)Cl)cc1` [DDT, 1,1,1-trichloro-2,2-bis(4-chlorophenyl)ethane], for which the Increase in induction is 0.65 in experiment [1] (setting [5]), −0.07 in experiment [3], −0.24 in experiment [2] (setting [7]) and 0.37 in experiment [2] (setting [6]).

Consider `ClC1=C(Cl)[C@]2(Cl)[C@@H]3[C@@H]4C[C@@H]([C@H]5O[C@@H]45)[C@@H]3[C@@]1(Cl)C2(Cl)Cl` [Dieldrin, dieldrin], for which the Increase in induction is 3.85 in experiment [1] (setting [5]), 0.00 in experiment [3], −0.02 in experiment [2] (setting [7]) and 0.89 in experiment [2] (setting [6]). Besides, in experiment [4], the “Increase in induction (antagonist activity)” value is −12.46.

Take `ClC1=C(Cl)C2(Cl)C3C4CC(C5OC45)C3C1(Cl)C2(Cl)Cl` (stereo not shown) [Endrin, endrin]: in experiment [4], the “Increase in induction (antagonist activity)” value is on record as −0.03.

Turning to `COc1ccc(-n2c(=O)c(C(=O)C3C(=O)CCCC3=O)nc3c(Cl)cccc32)cc1` [Fenquinotrione, fenquinotrione], in experiment [1] (setting [8]), the Increase in induction is −0.24.

In the case of `COC(=O)/C=C(\C)CC/C=C(\C)CC[C@H]1OC1(C)C` [Juvenile hormone III, juvenile hormone III], the Increase in induction in experiment [1] (setting [5]) is 6.20; in experiment [3], 0.41; in experiment [3] (listed as juvenile hormone III), “induced”; in experiment [2] (setting [7]) it was 0.58; in experiment [2] (Control yeast 6 (DmJHRR x3, DmMET, DmTai), listed as juvenile hormone III) it was “induced”; in experiment [2] (setting [6]), 1.45.

Take `CC#Cc1cc(C)nc(Nc2ccccc2)n1` [Mepanipyrim, mepanipyrim]: in experiment [1] (setting [8]), the Increase in induction is given as −0.76.

On to `COC(=O)NCc1cc(/C(C)=N/OCc2cccc(C)n2)ccc1Cl` [Pyribencarb, pyribencarb], for which the Increase in induction in experiment [1] (setting [8]) is listed as −0.24.

Consider `Cn1nc(C(F)(F)F)c(CS(=O)(=O)C2=NOC(C)(C)C2)c1OC(F)F` [Pyroxasulfone, pyroxasulfone], for which the Increase in induction in experiment [1] (setting [8]) is −0.50.

On to `C[C@]12CC[C@H]3[C@@H](CCC4=CC(=O)CC[C@@]43C)[C@@H]1CC[C@@H]2O` [Testosterone, testosterone], for which the Increase in induction in experiment [1] (setting [5]) was 1.78; in experiment [3], −0.02; in experiment [2] (setting [7]), −0.22; in experiment [2] (setting [6]), 0.98.
